We go through two molecules from paper PMC10582583, “The novel cyclophilin inhibitor C105SR reduces hepatic ischaemia–reperfusion injury via mitoprotection” (JHEP Reports, 2023).

One assay concerns the target CypD (Homo sapiens, UniProt P30405). The assay can be described thus: CypD PPIase activity, chymotrypsin-coupled assay. Particulars: for inhibition of CypD PPIase activity by diastereoisomers: 10 μM (Fig. 2A); for IC50: Table 2, enzyme assay. It is filed as biochemical.
Assay [1] deals with isolated mouse liver mitochondria. The assay can be described thus: Ca2+-induced mitochondrial swelling assay. Format: biochemical. Particulars: energised isolated mouse liver mitochondria.
Assay [2] deals with AML-12 cells. The assay can be described thus: Propidium iodide staining, hypoxia/reoxygenation. Format: cell-based, mouse. The note with it: 1 μM; 4 h hypoxia, 1 h reoxygenation. As to the method: To assess whether the new SMCypIs reduced mPTP opening-induced cell death, propidium iodide fluorescence was measured in cells that had been co-loaded with calcein-AM. As expected, the loss of calcein fluorescence in cells subjected to hypoxia/reoxygenation was associated with enhanced propidium iodide fluorescence (Fig. 3A and 3C).
Calcium retention capacity (CRC) assay. Isolated liver mitochondria (1 mg/mL) energized with 5 mM glutamate/malate were incubated in a buffer allowing respiration of mitochondria (100 mM KCl, 50 mM sucrose, 10 mM HEPES, 5 mM KH2PO4, pH 7.4 at 30°C) supplemented with 1 µM calcium green 5N fluorescent probe. Mitochondria were pulsed with sequential additions of CaCl2 (20 µM) until mPTP opening along with rapid calcium release happened. The calcium concentration in the extra-mitochondrial medium was monitored with a Jasco FP-6300 spectrofluorimeter (Jasco, Bouguenais, France) at 506 nm excitation and 532 nm emission wavelengths.
Mitochondrial swelling assay. Mitochondrial swelling was assessed by measuring changes in absorbance at 540 nm using a Jasco V-530 spectrophotometer (Bouguenais, France) equipped with magnetic stirring and thermostatic control (30°C). […]
Monitoring of mPTP opening. mPTP opening was monitored in AML-12 cells using the CoCl2-calcein AM fluorescence-quenching assay. […] Calcein fluorescence was measured using a spectrofluorimeter at excitation and emission wavelengths of 485 nm and 535 nm, respectively. Images were acquired using a standard inverted fluorescence microscope (Zeiss Axio, […]
Propidium iodide staining. […] Fluorescence was measured using an Infinite 200 Pro fluorescent plate reader (Tecan, Mannedorf, Switzerland) at excitation and emission wavelengths of 533 nm and 617 nm, respectively. Images were acquired using a standard inverted fluorescence microscope (Zeiss Axio, Oberkochen, Germany). […]
Cell viability assays. Lactate dehydrogenase (LDH) release in culture medium was assessed using the commercially non-radioactive CytoTox-96 kit (Promega, Madison, Wisconsin) following the manufacturer’s instructions. […]

The subject of assay [3] is AML-12 cells. The assay can be described thus: LDH release, hypoxia/reoxygenation. It is filed as cell-based, mouse. Particulars: for inhibition of LDH release / LDH release: 4 h hypoxia, 2 h reoxygenation; for LDH release: applied during hypoxia and reoxygenation. As to the method:
As expected, cells subjected to hypoxia/reoxygenation were characterised by greater LDH release and reduced cell viability as compared to untreated controls (Fig. 4A and 4B). […]
Hypoxia/reoxygenation (H/R) in vitro model. AML-12 mouse hepatocyte line was obtained from American Type Culture Collection (ATCC) and maintained in DMEM/F12 culture medium at 37°C with 5% CO2. HepaRG human hepatocyte line was obtained from American Type Culture Collection (ATCC) and maintained in William’S E culture medium at 37°C with 5% CO2.When indicated, cells were incubated in phosphate buffered saline at 37°C in a hypoxic chamber filled with 94% N2, 1% O2, 5% CO2 for 4 h to mimic ischemic conditions. Then, cells were transferred to a CO2 incubator at 37°C in regular DMEM/F12 culture medium for 1 or 2 h under normoxic conditions (74% N2, 21% O2, 5% CO2). SMCypIs or vehicle (DMSO) were added during the hypoxia period, during the reoxygenation period, or during both. CsA and ALV were used as positive controls for hepatic protection against H/R injury. […]
Cell viability assays. Lactate dehydrogenase (LDH) release in culture medium was assessed using the commercially non-radioactive CytoTox-96 kit (Promega, Madison, Wisconsin) following the manufacturer’s instructions. Briefly, cell culture media were collected and the LDH activity was determined by measuring absorbance at 491 nm with a spectrometer (Multiskan skyHigh). For 3-(4,5-dimethylthiazol-2-yl)-2,5-diphenyltetrazolium bromide (MTT) assay, cells were incubated with a solution of MTT (0.5 mg/mL) for 2 h at 37°C. The medium was then removed and 50 µL DMSO was added to each well. Optical density of purple formazan product was measured at 550 nm. Cell viability was expressed as a percentage of the untreated control.

The structures appear in SMILES notation.

Chain of CypD (P30405 30-207): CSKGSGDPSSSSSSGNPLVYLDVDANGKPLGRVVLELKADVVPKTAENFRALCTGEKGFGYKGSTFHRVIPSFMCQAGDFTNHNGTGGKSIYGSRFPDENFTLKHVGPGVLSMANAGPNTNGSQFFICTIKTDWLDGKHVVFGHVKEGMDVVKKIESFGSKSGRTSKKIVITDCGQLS

Consider `COc1ccc(Br)cc1[C@H](NC(=O)NCc1ccc(N)cc1)C(=O)N1CCC[C@@H]1c1cccc2ccsc12` [Compound C110SR, 1-(4-aminobenzyl)-3-((S)-2-((R)-2-(benzo[b]thiophen-7-yl)pyrrolidin-1-yl)-1-(5-bromo-2-methoxyphenyl)-2-oxoethyl)urea], for which, at CypD, the “inhibition of CypD PPIase activity by diastereoisomers” value is “inhibited CypD PPIase activity” and the IC50 was determined as 8 ± 2 nM. The molecule further displayed an IC50 in assay [1] of 40 ± 5 nM. For the same molecule, the propidium iodide fluorescence result in the assay with AML-12 cells [2] is given as “low propidium iodide fluorescence”. Further, the “inhibition of LDH release” value in the assay on AML-12 cells [3] (0.5 μM) was “not effective”. Besides, the LDH release result with AML-12 cells [3] is “reduced LDH release”.

Take `COc1ccc(Br)cc1[C@H](NC(=O)NCc1ccc2c(c1)CCCN2)C(=O)N1CCC[C@@H]1c1cccc2ccsc12` [Compound C105SR, 1-((S)-2-((R)-2-(benzo[b]thiophen-7-yl)pyrrolidin-1-yl)-1-(5-bromo-2-methoxyphenyl)-2-oxoethyl)-3-((1,2,3,4-tetrahydroquinolin-6-yl)methyl)urea]: on CypD, the “inhibition of CypD PPIase activity by diastereoisomers” value is “inhibited CypD PPIase activity” and the IC50 was 5 ± 1 nM. The molecule further returned an IC50 in assay [1] of 9 ± 1 nM. In addition, the propidium iodide fluorescence entry in the assay with AML-12 cells [2] is “low propidium iodide fluorescence”. Moreover, in the assay with AML-12 cells [3] (0.5 μM), the “inhibition of cell death” value is “inhibited” and the “inhibition of LDH release” value is recorded as “potent activity inhibiting LDH release”. Moreover, the LDH release entry in the assay with AML-12 cells [3] is recorded as “reduced LDH release”.
